In publication PMC6106730, “The hemicellulose-degrading enzyme system of the thermophilic bacterium Clostridium stercorarium: comparative characterisation and addition of new hemicellulolytic glycoside hydrolases” (Biotechnology for Biofuels, 2018):

Columns and labels:
Xyn105F = biological target: T1, Xyn105F (Thermoclostridium stercorarium, UniProt L7VMZ8); test: HPAEC-PAD of hydrolysis products; format: biochemical; details: 20 mg/L oligosaccharide, 2 mg/L enzyme, overnight, 60 °C, pH 6.5
T1 construct: gene Cst_c10410; no signal peptide predicted; C-terminal His6 tag, pET-24c(+), E. coli BL21 Star; IMAC and heat step
T1 sequence (L7VMZ8 entry or part of it): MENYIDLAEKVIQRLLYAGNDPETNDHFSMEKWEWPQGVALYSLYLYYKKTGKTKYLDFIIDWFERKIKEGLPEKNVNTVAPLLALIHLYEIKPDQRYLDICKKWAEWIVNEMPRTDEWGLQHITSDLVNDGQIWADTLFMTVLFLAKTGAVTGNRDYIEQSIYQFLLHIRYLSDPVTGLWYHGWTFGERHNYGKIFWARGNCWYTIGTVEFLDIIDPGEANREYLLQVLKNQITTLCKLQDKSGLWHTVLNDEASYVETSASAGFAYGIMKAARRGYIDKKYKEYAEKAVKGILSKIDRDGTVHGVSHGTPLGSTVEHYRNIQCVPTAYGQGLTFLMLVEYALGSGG

Xyn10D = biological target: T2, Xyn10D (Thermoclostridium stercorarium, UniProt L7VM99); test: HPAEC-PAD of hydrolysis products; format: biochemical; details: 20 mg/L oligosaccharide, 2 mg/L enzyme, overnight, 60 °C, pH 6.5
T2 construct: gene Cst_c07550; no signal peptide predicted; C-terminal His6 tag, pET-24c(+), E. coli BL21 Star; IMAC and heat step
T2 sequence (L7VM99 entry or part of it): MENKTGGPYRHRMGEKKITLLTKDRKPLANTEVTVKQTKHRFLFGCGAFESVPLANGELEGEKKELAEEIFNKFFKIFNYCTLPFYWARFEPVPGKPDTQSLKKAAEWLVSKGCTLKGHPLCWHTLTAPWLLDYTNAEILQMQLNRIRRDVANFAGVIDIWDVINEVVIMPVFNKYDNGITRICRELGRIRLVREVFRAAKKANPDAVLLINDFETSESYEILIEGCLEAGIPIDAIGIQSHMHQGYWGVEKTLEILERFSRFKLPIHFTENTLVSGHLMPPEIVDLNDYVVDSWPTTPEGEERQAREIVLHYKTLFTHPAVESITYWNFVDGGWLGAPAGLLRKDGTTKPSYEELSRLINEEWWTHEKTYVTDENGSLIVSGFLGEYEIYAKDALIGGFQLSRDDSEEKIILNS

## OC1OC[C@@H](O[C@@H]2OC[C@@H](O[C@@H]3OC[C@@H](O[C@@H]4OC[C@@H](O[C@@H]5OC[C@@H](O)[C@H](O)[C@H]5O)[C@H](O)[C@H]4O)[C@H](O)[C@H]3O)[C@H](O)[C@H]2O)[C@H](O)[C@H]1O (some centres unmarked) [X5, xylopentaose]
Xyn105F
  HPAEC-PAD of hydrolysis products: Xyn105F was also active on xylopentaose, releasing xylose and xylobiose
Xyn10D
  HPAEC-PAD of hydrolysis products: All five xylanases degraded xylopentaose first to xylotriose and xylobiose
